Read-outs that look alike come from different tables or passages of the source.
Assay: Determination of stability of UTP and related compound (solution left to stand, HPLC, decomposition rate)
Assay type: physicochemical
Experimental: In order to evaluate stability of UTP free, stability of aqueous solutions of UTP free and UTP sodium salt (UTP-Na) and a dimethylacetamide solution of UTP-tributylamine salt (UTP-TBA) was examined. Also, stability of aqueous solutions of UDP free and UDP-Na as comparison control was also determined. The solution of each substance was left to stand for a certain period at −20° C., 25° C. or 50° C., and the concentration of each substance was determined by HPLC to calculate a decomposition rate. Here, the decomposition rate was defined as the following [equation 1]. Decomposition rate (%) of each substance={100−(HPLC % of each substance at determination/HPLC % of each substance at test start)×100} [equation 1]

[1] = aqueous solution left to stand at 25° C., 8 h, 16 mM UTP free, 10 mM UDP free
[2] = aqueous solution left to stand at 25° C., 24 h, 16 mM UTP free, 10 mM UDP free
[3] = 50° C., 8 h, 35 mM UTP-TBA in dimethylacetamide solution, 40 mM UTP-Na and 40 mM UDP-Na in aqueous solution
[4] = 50° C., 24 h, 35 mM UTP-TBA in dimethylacetamide solution, 40 mM UTP-Na and 40 mM UDP-Na in aqueous solution

SMILES | Decomposition rate [1] [%] | Decomposition rate [2] [%] | Decomposition rate [3] [%] | Decomposition rate [4] [%] | Stability during storage of the solution | Decomposition rate (aqueous solution left to stand at −20° C., 18 h, 16 mM UTP free) [%] | Stability during storage of the solution (compared to UTP sodium salt, UDP free and UDP sodium salt)
O=c1ccn([C@@H]2O[C@H](COP(=O)(O)OP(=O)(O)O)[C@@H](O)[C@H]2O)c(=O)[nH]1 [UDP free, uridine 5′-diphosphoric acid] | 0 | 0 | – | – | – | – | –
O=c1ccn([C@@H]2O[C@H](COP(=O)([O-])OP(=O)([O-])O)[C@@H](O)[C@H]2O)c(=O)[nH]1.[Na+].[Na+] [UDP-Na, UDP sodium salt] | – | – | 2 | 5 | – | – | –
O=c1ccn([C@@H]2O[C@H](COP(=O)(O)OP(=O)(O)OP(=O)(O)O)[C@@H](O)[C@H]2O)c(=O)[nH]1 [UTP free, uridine 5′-triphosphoric acid] | 4 | 12 | – | – | clearly low stability | 4 | –
O=c1ccn([C@@H]2O[C@H](COP(=O)([O-])OP(=O)([O-])OP(=O)([O-])O)[C@@H](O)[C@H]2O)c(=O)[nH]1.[Na+].[Na+].[Na+] [UTP-Na, UTP sodium salt] | – | – | 2 | 6 | – | – | –
CCCCN(CCCC)CCCC.O=c1ccn([C@@H]2O[C@H](COP(=O)(O)OP(=O)(O)OP(=O)(O)O)[C@@H](O)[C@H]2O)c(=O)[nH]1 [UTP-TBA, UTP-tributylamine salt] | – | – | 7 | 18 | – | – | clearly low stability

Source: US10179799B2, “Method for producing P1,P4-di(uridine 5′-) tetraphosphate” (YAMASA CORPORATION, priority 2012, dated 2019)
